The record followed here is ChEMBL document CHEMBL1201862, “PubChem BioAssay data set” (2004).

Among the test systems are NCI-H226; SF-295; 786-0; A549; CCRF-CEM; SK-OV-3; U-251; CAKI-1; UACC-257; HT-29; K562; SN12C; HOP-92; SR; SK-MEL-2; OVCAR-5; SNB-19.
Holding throughout (assay): DTP human tumour cell line panel, 48 h

Molecules are shown by their SMILES.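 Exposure lasted 48 hours, with cells grown in 96-well plates and compounds tested at five concentrations. GI50 is the concentration that inhibits growth by half.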 Calls of active or inactive are those of the source. No stated cut-off is given here; in the data, active = GI50 up to about 1.1 µM and inactive = higher.

The GI50 is the concentration giving 50% growth inhibition. Turning to `CC1=CCCC2C(C=O)(C1)CC(C)C2(CO)CC/C(=C/CO)CO` (centres undefined), the GI50 is 38.5 µM (inactive) in the test on NCI-H226; > 100 µM (inactive) with SF-295; > 100 µM (inactive) in the test on 786-0; > 100 µM (inactive) in the test on A549; 71.9 µM (inactive) in the test with CCRF-CEM; > 100 µM (inactive) with SK-OV-3. Moreover, the GI50 in the test with U-251 was > 100 µM (inactive); with CAKI-1 it was 57.3 µM (inactive); in the test on UACC-257, 98.9 µM (inactive); with HT-29, > 100 µM (inactive); in the test on K562, 89.5 µM (inactive); in the test with SN12C, > 100 µM (inactive). Besides, the GI50 in the test with HOP-92 is 30 µM (inactive).

With `CC1(Cl)CC(C)(/C=C/Cl)C(Cl)CC1Cl` (centres undefined), the GI50 was 15.2 µM (inactive) in the test with SF-295; 15.4 µM (inactive) in the test on 786-0; 18.2 µM (inactive) in the test with SR; 14 µM (inactive) with A549; 19.1 µM (inactive) with CCRF-CEM; 38.4 µM (inactive) in the test on SK-OV-3. The GI50 is 16.9 µM (inactive) in the test with U-251; 13.5 µM (inactive) with SK-MEL-2; 16.1 µM (inactive) with CAKI-1; 11.6 µM (inactive) in the test on HT-29; 9.79 µM (inactive) in the test on K562; 17.3 µM (inactive) with SN12C. Besides, the GI50 in the test on OVCAR-5 is 18.9 µM (inactive); with SNB-19, 17.4 µM (inactive); in the test on HOP-92, 0.615 µM (active).

As for `O=C1C2C(C(=O)N1c1ccccc1)C1([N+](=O)[O-])C=C3c4ccccc4N(C(=O)c4ccccc4)C32C2C(=O)N(c3ccccc3)C(=O)C21` (centres undefined), the GI50 in the test on SF-295, in the test on 786-0, in the test on SR, in the test with A549, in the test with CCRF-CEM and with SK-OV-3 was > 100 µM (inactive) each time. The GI50 with U-251, with SK-MEL-2, in the test on CAKI-1, in the test with UACC-257, in the test on HT-29 and in the test on K562 was > 100 µM (inactive) each time. In addition, the GI50 in the test on SN12C, in the test with OVCAR-5, in the test with SNB-19 and in the test on HOP-92 was > 100 µM (inactive) each time.

`Cc1cccc(C)c1NC(=O)CCC(=O)/N=C(\N)NC#N`: the GI50 in the test on NCI-H226, with SF-295, in the test on 786-0, with SR, in the test with A549 and in the test on CCRF-CEM was > 100 µM (inactive) each time. The GI50 in the test with SK-OV-3, in the test on U-251, with CAKI-1, in the test on UACC-257, with HT-29 and with K562 was > 100 µM (inactive) in each case. Also, the GI50 in the test with SN12C, in the test with OVCAR-5, in the test with SNB-19 and with HOP-92 was > 100 µM (inactive) each time.

As to `CCOc1ccccc1NC(=O)C1=C(C)NC(C)=C(C(=O)Nc2ccccc2OCC)C1c1cccc([N+](=O)[O-])c1`, the GI50 with NCI-H226 is 80.4 µM (inactive); in the test on SF-295, > 100 µM (inactive); with 786-0 it was 57.9 µM (inactive); in the test with A549, 31.6 µM (inactive); with CCRF-CEM, 37.9 µM (inactive); with SK-OV-3, > 100 µM (inactive). In addition, the GI50 with U-251 was > 100 µM (inactive); with SK-MEL-2 it was 39.3 µM (inactive); in the test with CAKI-1, 5.9 µM (inactive); with UACC-257, 27.2 µM (inactive); in the test with HT-29, 98.4 µM (inactive); with K562, 28.2 µM (inactive). Besides, the GI50 in the test with SN12C is > 100 µM (inactive); in the test with OVCAR-5 it was > 100 µM (inactive); in the test on SNB-19, > 100 µM (inactive); in the test with HOP-92, 4.29 µM (inactive).

Turning to `COc1ccc(C2ON(c3cccc(C)n3)CC=C2C)cc1` (centres undefined), the GI50 in the test on NCI-H226 is > 100 µM (inactive); in the test on SF-295, 59.8 µM (inactive); in the test with 786-0 it was 44.7 µM (inactive); in the test with SR it was 30.1 µM (inactive); with A549, 40.7 µM (inactive); in the test on CCRF-CEM, 42.9 µM (inactive). For the same molecule, the GI50 was 97.9 µM (inactive) in the test on SK-OV-3; 32.4 µM (inactive) in the test on U-251; 27.4 µM (inactive) with SK-MEL-2; 74.1 µM (inactive) with CAKI-1; 31 µM (inactive) in the test with UACC-257; 32 µM (inactive) with HT-29. Moreover, the GI50 with K562 was 38.8 µM (inactive); in the test with SN12C, 70.6 µM (inactive); with OVCAR-5 it was > 100 µM (inactive); with SNB-19, 97.1 µM (inactive).

For `Fc1cccc(/C=N/C23CC4CC(CC(C4)C2)C3)c1`, the GI50 with NCI-H226, in the test with SF-295, in the test with 786-0, in the test on CCRF-CEM, with SK-OV-3 and in the test on U-251 was > 100 µM (inactive) each time. Further, the GI50 in the test on SK-MEL-2, with CAKI-1, with UACC-257, in the test on HT-29, in the test with K562 and in the test on SN12C was > 100 µM (inactive) throughout. Besides, the GI50 in the test on OVCAR-5, in the test with SNB-19 and in the test on HOP-92 was > 100 µM (inactive) in each case.

As for `COC(=O)C1=C(O)c2cc3c(cc2[C@H](c2cc(OC)c(OC)c(OC)c2)C1)OCO3`, the GI50 in the test on NCI-H226 was 87.7 µM (inactive); in the test with SF-295, 37.5 µM (inactive); in the test with 786-0 it was 58.5 µM (inactive); in the test on SR, 30.8 µM (inactive); in the test on A549, 57.5 µM (inactive); in the test on CCRF-CEM it was 38.1 µM (inactive). In addition, the GI50 was > 100 µM (inactive) with SK-OV-3; 44.5 µM (inactive) in the test on U-251; 34.8 µM (inactive) with CAKI-1; 34 µM (inactive) in the test on UACC-257; 48.1 µM (inactive) in the test with HT-29; 22.5 µM (inactive) with K562. The GI50 in the test with SN12C was 54.1 µM (inactive); in the test with OVCAR-5 it was > 100 µM (inactive); with SNB-19, > 100 µM (inactive); in the test on HOP-92, 96.8 µM (inactive).

With `CC1CCCC(C(O)CC2CC(=O)N(c3ccccc3)C(=O)C2)C1=O` (centres undefined), the GI50 in the test with NCI-H226, in the test with SF-295, in the test with 786-0, in the test on SR, in the test on A549 and in the test on CCRF-CEM was > 100 µM (inactive) each time. Moreover, the GI50 in the test with SK-OV-3, in the test on U-251, with CAKI-1, in the test on UACC-257, in the test with HT-29 and in the test with K562 was > 100 µM (inactive) throughout. For the same molecule, the GI50 in the test with SN12C, in the test on OVCAR-5, with SNB-19 and in the test with HOP-92 was > 100 µM (inactive) in each case.

Regarding `CC(=O)CC(=O)N(CCN(C(=O)CC(C)=O)c1ccccc1)c1ccccc1`, the GI50 is > 100 µM (inactive) with NCI-H226; > 100 µM (inactive) with SF-295; > 100 µM (inactive) with 786-0; > 100 µM (inactive) in the test with A549; 58.2 µM (inactive) in the test on CCRF-CEM; > 100 µM (inactive) in the test with SK-OV-3. Moreover, the GI50 was > 100 µM (inactive) in the test on U-251; > 100 µM (inactive) in the test on SK-MEL-2; > 100 µM (inactive) with CAKI-1; 32.2 µM (inactive) in the test on UACC-257; > 100 µM (inactive) in the test with K562; > 100 µM (inactive) in the test on SN12C. For the same molecule, the GI50 in the test on OVCAR-5, in the test with SNB-19 and in the test on HOP-92 was > 100 µM (inactive) in each case.

As to `Cc1c(C(=O)/C=C/c2ccccc2)[n+]([O-])c2ccccc2[n+]1[O-]`, the GI50 was 20.8 µM (inactive) with NCI-H226; 16.4 µM (inactive) with SF-295; 17.2 µM (inactive) in the test with 786-0; 23.2 µM (inactive) in the test on SR; 18.4 µM (inactive) with A549; 22.2 µM (inactive) with CCRF-CEM. Also, the GI50 with SK-OV-3 is 20.1 µM (inactive); with U-251, 15.3 µM (inactive); with CAKI-1, 17.5 µM (inactive); in the test on UACC-257, 16.6 µM (inactive); in the test on HT-29, 19.3 µM (inactive); in the test on K562, 15.6 µM (inactive). In addition, the GI50 in the test with SN12C is 13.8 µM (inactive); with OVCAR-5, 16.7 µM (inactive); in the test with SNB-19 it was 15.7 µM (inactive); in the test with HOP-92, 11.6 µM (inactive).

For the molecule `C\C=C/C=C/C=C/C(=O)O`, the GI50 with NCI-H226, in the test with SF-295, in the test with 786-0, in the test on A549, in the test on CCRF-CEM and in the test with SK-OV-3 was > 100 µM (inactive) in each case. In addition, the GI50 with U-251, with SK-MEL-2, in the test on CAKI-1, with UACC-257, with HT-29 and in the test with K562 was > 100 µM (inactive) in each case. Besides, the GI50 in the test on SN12C, with OVCAR-5 and with SNB-19 was > 100 µM (inactive) throughout.

On to `CC(C)N(C(=O)C12C3C4C1C1C2C3C41I)C(C)C` (centres undefined), for which the GI50 with NCI-H226, in the test with SF-295, in the test with 786-0, with SR, in the test with A549 and in the test with CCRF-CEM was > 100 µM (inactive) throughout. Besides, the GI50 in the test on SK-OV-3 is > 100 µM (inactive); in the test on CAKI-1, > 100 µM (inactive); in the test on HT-29, > 100 µM (inactive); in the test on K562 it was > 100 µM (inactive); with SN12C, > 100 µM (inactive); in the test with OVCAR-5, 84.3 µM (inactive). Moreover, the GI50 in the test on SNB-19 was > 100 µM (inactive); with HOP-92, 88.9 µM (inactive).
